Source: patent US12398120B2, “Substituted hydantoinamides as ADAMTS7 antagonists” (BAYER AKTIENGESELLSCHAFT, priority 2019, dated 2025)

Molecular target: ADAMTS4 (Homo sapiens (Human), UniProt O75173)
Experiment: Selectivity assay for ADAMTS-7 modulators: ADAMTS4 (FRET substrate)
Format: biochemical
Conditions: ADAMTS4 (R&D 4307-AD) 50 nM, substrate Dabcyl-EEVKAKVQPY-Glu(Edans)-NH2 1 μM, 120 min, 32° C.
Procedure: 1 μl test compound solution (dissolved in DMSO, at the corresponding concentration) or pure DMSO as a control was added per well. The enzymatic reaction was initiated by addition of 25 μl of the respective concentration of the respective FRET substrate (see table 2 below) in reaction buffer.
The increase of fluorescence intensity was measured in appropriate fluorescence plate reader (e.g. TECAN Ultra) using the respective wavelengths for excitation and emission. IC50 values were calculated from percentage of inhibition of enzyme activity as a function of test compound concentration.

ADAMTS4, sequence (O75173 213-685): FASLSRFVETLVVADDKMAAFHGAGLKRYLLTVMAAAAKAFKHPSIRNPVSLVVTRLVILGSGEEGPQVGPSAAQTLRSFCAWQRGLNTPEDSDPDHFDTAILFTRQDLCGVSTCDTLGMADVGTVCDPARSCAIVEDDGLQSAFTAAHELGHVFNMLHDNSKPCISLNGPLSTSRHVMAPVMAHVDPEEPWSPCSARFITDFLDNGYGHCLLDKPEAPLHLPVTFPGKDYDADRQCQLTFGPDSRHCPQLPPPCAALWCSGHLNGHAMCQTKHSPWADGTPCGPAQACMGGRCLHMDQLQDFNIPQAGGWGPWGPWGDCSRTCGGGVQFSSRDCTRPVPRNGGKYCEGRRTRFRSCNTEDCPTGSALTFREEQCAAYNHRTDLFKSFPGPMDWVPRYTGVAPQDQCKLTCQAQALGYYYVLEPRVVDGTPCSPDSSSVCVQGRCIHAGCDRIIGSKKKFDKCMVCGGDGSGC

Row | SMILES | IC50 [µM]
1 | CCC(C)C1(CNC(=O)c2ccccc2-c2ccc(C(F)(F)F)cc2)NC(=O)NC1=O (stereo not drawn) [Example 38, Diamix-N-[(4-Sec-Butyl-2,5-Dioxoimidazolidin-4-Yl)Methyl]-4′-(Trifluoromethyl)[Biphenyl]-2-Carboxamide] | 21
2 | Cc1c(C2(CNC(=O)c3ccc(F)cc3-c3ccc(C(F)(F)F)cc3)NC(=O)NC2=O)ncn1C (racemic) [Example 304, Rac-N-{[4-(1,5-Dimethyl-1H-Imidazol-4-Yl)-2,5-Dioxoimidazolidin-4-Yl]Methyl}-5-Fluoro-4′-(Trifluoromethyl)[Biphenyl]-2-Carboxamide] | 3.3
3 | O=C1NC(=O)[C@](CNC(=O)c2c(Cl)cccc2-c2ccc(Cl)cc2)(C2CC2)N1 [Example 231, 3,4′-Dichloro-N-{[(4R)-4-Cyclopropyl-2,5-Dioxoimidazoidin-4-Yl]Methyl}[1,1′-Biphenyl]-2-Carboxamide] | 5.2
4 | Cc1ccc(-c2cc(C)ccc2C(=O)NC[C@@]2(C3CC3)NC(=O)NC2=O)cc1 [Example 22, N-{[(4R)-4-Cyclopropyl-2,5-Dioxoimidazolidin-4-Yl]Methyl}-4′,5-Dimethyl[Biphenyl]-2-Carboxamide] | 3.9
5 | O=C1NC(=O)C(CNC(=O)c2ccccc2-c2ccc(C(F)(F)F)nc2)(c2ccnn2C2CC2)N1 (stereo not drawn) [Example 66, Ent-N-{[4-(1-Cyclopropyl-1H-Pyrazol-5-Yl)-2,5-Dioxoimidazolidin-4-Yl]Methyl}-2-[6-(Trifluoromethyl)Pyridin-3-Yl]Benzamide] | 8.2
6 | O=C1NC(=O)C(CNC(=O)c2ccccc2-c2ccc(Cl)cc2)(C2CC(F)(F)C2)N1 (racemic) [Example 246, Rac-4′-Chloro-N-{[4-(3,3-Difluorocyclobutyl)-2,5-Dioxoimidazolidin-4-Yl]Methyl}[Biphenyl]-2-Carboxamide] | > 50
7 | O=C1NC(=O)C(CNC(=O)c2ccccc2-c2ccc(Cl)cc2)(C2(F)CC2)N1 (racemic) [Example 250, Rac-4′-Chloro-N-{[4-(1-Fluorocyclopropyl)-2,5-Dioxoimidazolidin-4-Yl]Methyl}[Biphenyl]-2-Carboxamide] | 31
8 | O=C1NC(=O)C(CNC(=O)c2ccccc2-c2ccc(C(F)(F)F)nc2)(c2cscn2)N1 (stereo not drawn) [Example 277, Ent-N-{[2,5-Dioxo-4-(1,3-Thiazol-4-Yl)Imidazolidin-4-Yl]Methyl}-2-[6-(Trifluoromethyl)Pyridin-3-Yl]Benzamide] | 16
9 | O=C1NC(=O)C(CNC(=O)c2ccccc2-c2ccc(Cl)cc2)(C2(F)CC2)N1 (single isomer, unassigned; ent-4) [Example 251, Ent-4′-Chloro-N-{[4-(1-Fluorocyclopropyl)-2,5-Dioxoimidazolidin-4-Yl]Methyl}[Biphenyl]-2-Carboxamide] | 11
10 | Cc1scnc1C1(CNC(=O)c2ccccc2-c2ccc(C(F)(F)F)nc2)NC(=O)NC1=O (stereo not drawn) [Example 173, Ent-N-{[4-(5-Methyl-1,3-Thiazol-4-Yl)-2,5-Dioxoimidazolidin-4-Yl]Methyl}-2-[6-(Trifluoromethyl)Pyridin-3-Yl]Benzamide] | 7.9
11 | Cn1nccc1C1(CNC(=O)c2ccccc2-c2ccc(Cl)cc2)NC(=O)NC1=O (single isomer, unassigned; ent-4) [Example 182, Ent-4′-Chloro-N-{[4-(1-Methyl-1H-Pyrazol-5-Yl)-2,5-Dioxoimidazolidin-4-Yl]Methyl}[Biphenyl]-2-Carboxamide] | 4.03
12 | O=C1NC(=O)C(CNC(=O)c2ccccc2-c2ccc(C(F)(F)F)cc2)(c2ncsc2C(F)(F)F)N1 (racemic) [Example 263, Rac-N-({2,5-Dioxo-4-[5-(Trifluoromethyl)-1,3-Thiazol-4-Yl]Imidazolidin-4-Yl}Methyl)-4′-(Trifluoromethyl)[Biphenyl]-2-Carboxamide] | 32
13 | Cc1ccc(C(=O)NCC2(C3CCC3)NC(=O)NC2=O)c(-c2ccc(C(F)(F)F)cc2)c1 (stereo not drawn) [Example 238, Ent-N-[(4-Cyclobutyl-2,5-Dioxoimidazolidin-4-Yl)Methyl]-5-Methyl-4′-(Trifluoromethyl)[Biphenyl]-2-Carboxamide] | 2
14 | CC(C)C1(CNC(=O)c2ccccc2-c2ccc(C(F)(F)F)cc2)NC(=O)NC1=O (stereo not drawn) [Example 209, Ent-N-[(4-Isopropyl-2,5-Dioxoimidazolidin-4-Yl)Methyl]-4′-(Trifluoromethyl)[Biphenyl]-2-Carboxamide] | 36.5
15 | Cc1nscc1C1(CNC(=O)c2ccc(F)c(F)c2-c2ccc(C(F)(F)F)cc2)NC(=O)NC1=O (racemic) [Example 306, Rac-5,6-Difluoro-N-{[4-(3-Methyl-1,2-Thiazol-4-Yl)-2,5-Dioxoimidazolidin-4-Yl]Methyl}-4′-(Trifluoromethyl)[Biphenyl]-2-Carboxamide] | 16
16 | Cc1cc(C2(CNC(=O)c3ccccc3-c3ccc(C(F)(F)F)cc3)NC(=O)NC2=O)n(C)n1 (stereo not drawn) [Example 302, Ent-N-{[4-(1,3-Dimethyl-1H-Pyrazol-5-Yl)-2,5-Dioxoimidazolidin-4-Yl]Methyl}-4′-(Trifluoromethyl)[Biphenyl]-2-Carboxamide] | 7.6
17 | Cc1nscc1C1(CNC(=O)c2ccccc2-c2ccc(C(F)(F)F)cc2)NC(=O)NC1=O (stereo not drawn) [Example 86, Ent-N-{[4-(3-Methyl-1,2-Thiazol-4-Yl)-2,5-Dioxoimidazolidin-4-Yl]Methyl}-4′-(Trifluoromethyl)[Biphenyl]-2-Carboxamide] | 7.6
18 | Cc1scnc1C1(CNC(=O)c2ccccc2-c2ccc(C(F)(F)F)cc2)NC(=O)NC1=O (racemic) [Example 1, Rac-N-{[4-(5-Methyl-1,3-Thiazol-4-Yl)-2,5-Dioxoimidazolidin-4-Yl]Methyl}-4′-(Trifluoromethyl)[Biphenyl]-2-Carboxamide] | 6.5
19 | CC(C)CCC1(CNC(=O)c2ccccc2-c2ccc(C(F)(F)F)cc2)NC(=O)NC1=O (racemic) [Example 58, Rac-N-{[4-(3-Methylbutyl)-2,5-Dioxoimidazolidin-4-Yl]Methyl}-4′-(Trifluoromethyl)[Biphenyl]-2-Carboxamide] | > 50
20 | Cn1ccnc1C1(CNC(=O)c2cc(Cl)ccc2-c2ccc(C(F)(F)F)cc2)NC(=O)NC1=O (single isomer, unassigned; ent-4) [Example 156, Ent-4-Chloro-N-{[4-(1-Methyl-1H-Imidazol-2-Yl)-2,5-Dioxoimidazolidin-4-Yl]Methyl}-4′-(Trifluoromethyl)[Biphenyl]-2-Carboxamide] | 25
21 | O=C1NC(=O)[C@](CNC(=O)c2cc(F)c(F)cc2-c2ccc(C3CC3(F)F)cc2)(C2CC2)N1 (stereo partly drawn) [Example 144, N-{[(4R)-4-Cyclopropyl-2,5-Dioxoimidazolidin-4-Yl]Methyl}-4′-(2,2-Difluorocyclopropyl)-4,5-Difluoro[1,1′-Biphenyl]-2-Carboxamide] | 25
22 | O=C1NC(=O)[C@](CNC(=O)c2ccccc2-c2ccc(C3CC3(F)F)cc2)(C2CC2)N1 (stereo partly drawn) [Example 111, N-{[(4R)-4-Cyclopropyl-2,5-Dioxoimidazolidin-4-Yl]Methyl}-4′-(2,2-Difluorocyclopropyl)[Biphenyl]-2-Carboxamide] | 7.9
23 | Cn1nc2ccccc2c1C1(CNC(=O)c2ccc(F)cc2-c2ccc(C(F)(F)F)cc2)NC(=O)NC1=O (racemic) [Example 288, Rac-5-Fluoro-N-{[4-(2-Methyl-2H-Indazol-3-Yl)-2,5-Dioxoimidazolidin-4-Yl]Methyl}-4′-(Trifluoromethyl)[Biphenyl]-2-Carboxamide] | 21
24 | Cn1ccnc1C1(CNC(=O)c2cc(F)c(F)cc2-c2ccc(C3CC3(F)F)cc2)NC(=O)NC1=O (stereo not drawn) [Example 143, 4′-(2,2-Difluorocyclopropyl)-4,5-Difluoro-N-{[4-(1-Methyl-1H-Imidazol-2-Yl)-2,5-Dioxoimidazolidin-4-Yl]Methyl}[1,1′-Biphenyl]-2-Carboxamide] | 4.6
25 | O=C1NC(=O)[C@](CNC(=O)c2ccccc2-c2ccc(F)cc2)(C2CC2)N1 [Example 129, N-{[(4R)-4-Cyclopropyl-2,5-Dioxoimidazolidin-4-Yl]Methyl}-4′-Fluoro[Biphenyl]-2-Carboxamide] | 8.7
26 | Cn1nccc1C1(CNC(=O)c2ccccc2-c2ccc(Cl)c(Cl)c2)NC(=O)NC1=O (single isomer, unassigned; ent-3) [Example 311, Ent-3′,4′-Dichloro-N-{[4-(1-Methyl-1H-Pyrazol-5-Yl)-2,5-Dioxoimidazolidin-4-Yl]Methyl}[Biphenyl]-2-Carboxamide] | 11
27 | O=C1NC(=O)C(CNC(=O)c2ccccc2-c2ccc(C(F)(F)F)cc2)(c2cscn2)N1 (stereo not drawn) [Example 197, Ent-N-{[2,5-Dioxo-4-(1,3-Thiazol-4-Yl)Imidazolidin-4-Yl]Methyl}-4′-(Trifluoromethyl)[Biphenyl]-2-Carboxamide] | 13
28 | Cn1nccc1C1(CNC(=O)c2ccc(C(F)F)cc2-c2ccc(C(F)(F)F)cc2)NC(=O)NC1=O (single isomer, unassigned; ent-5) [Example 309, Ent-5-(Difluoromethyl)-N-{[4-(1-Methyl-1H-Pyrazol-5-Yl)-2,5-Dioxoimidazolidin-4-Yl]Methyl}-4′-(Trifluoromethyl)[Biphenyl]-2-Carboxamide] | 2.7
29 | O=C1NC(=O)[C@](CNC(=O)c2ccc(OC(F)(F)F)cc2-c2ccc(C(F)(F)F)cc2)(C2CC2)N1 [Example 92, N-{[(4R)-4-Cyclopropyl-2,5-Dioxoimidazolidin-4-Yl]Methyl}-5-(Trifluoromethoxy)-4′-(Trifluoromethyl)[1,1′-Biphenyl]-2-Carboxamide] | 19
30 | O=C1NC(=O)[C@](CNC(=O)c2cc(F)ccc2-c2ccc(Cl)c(Cl)c2)(C2CC2)N1 [Example 234, 3′,4′-Dichloro-N-{[(4R)-4-Cyclopropyl-2,5-Dioxoimidazolidin-4-Yl]Methyl}-4-Fluoro[1,1′-Biphenyl]-2-Carboxamide] | 16
